Experiments:
[1] = Ambient storage stability test, HPLC, 25° C. for two and one-half months; format: physicochemical; conditions: for Final percent concentration of active in concentrate: HPLC after 25° C. for two and one-half months; for Initial percent concentration of active in concentrate: HPLC before storage, concentrate of Example 4 (so in the source); for % Diff: final vs initial, 25° C. for two and one-half months
Experimental: A further sample of the concentrate of Example 4 was tested under ambient storage conditions at 25° C. for two and one-half months. The sample was initially subjected to an HPLC test, and then again tested at the end of the storage period.

[2] = Standard accelerated chemical stability test, HPLC of each active, 40° C. for thirty days; format: physicochemical; conditions: for Final percent concentration of active in concentrate: HPLC after 40° C. for thirty days, sealed container; for Initial percent concentration of active in concentrate: HPLC before storage, concentrate of Example 4 (so in the source); for % Diff: final vs initial, 40° C. for thirty days
Experimental: Another sample of the concentrate Example 4 was subjected to a standard accelerated chemical stability test by conducting an HPLC analysis of each of the active ingredients to determine the percent concentration of each active in the concentrate. The sample was then placed in a sealed container and stored at 40° C. for thirty days. An HPLC analysis was repeated following the extended storage period. All are within accepted limits as established by U.S. EPA for pesticidal products.

Compound	Final percent concentration of active in concentrate [1] [%]	Initial percent concentration of active in concentrate [1] [%]	% Diff [1] [%]	Final percent concentration of active in concentrate [2] [%]	Initial percent concentration of active in concentrate [2] [%]	% Diff [2] [%]
O=C(O)COc1ccc(Cl)cc1Cl [2,4-D]	9.154	9.203	−0.53	8.987	9.203	−2.35
COc1c(Cl)ccc(Cl)c1C(=O)O [Dicamba]	0.933	0.946	−1.37	1.091	1.141	−4.38
CSC(=O)c1c(C(F)F)nc(C(F)(F)F)c(C(=O)SC)c1CC(C)C [Dithiopyr]	1.921	1.977	−2.83	1.909	1.977	−3.44
O=C(O)c1c(Cl)ccc2cc(Cl)cnc12 [Quinclorac]	1.929	1.91	0.99	1.876	1.91	−1.78
Cc1nn(-c2cc(NS(C)(=O)=O)c(Cl)cc2Cl)c(=O)n1C(F)F [Sulfentrazone]	0.380	0.379	0.26	0.363	0.379	−4.22

Reference: US20080311221A1, “LEWIS ACID AND OIL-SOLUBLE HYBRID PESTICIDE CONCENTRATE THAT SPONTANEOUSLY FORMS A WATER-BASED MICROEMULSION” (PBI/Gordon Corporation, priority 2007, published 2008)
